Test results from patent US20130184272A1, “DIABETES THERAPEUTIC AGENT” (TAKEDA PHARMACEUTICAL COMPANY LIMITED, priority 2010, published 2013).

Tests used:
[1] = test system: Mouse-derived myoblast line C2C12 cell; assay: Cell differentiation promoting activity in myoblast (creatine kinase activity); type: cell-based; conditions: Mus musculus, C2C12, 48 h; compound at 0.01 μM (**); 2 days; without compound = 100%; read-out: creatine kinase activating action (%)
Method: • (1) Mouse-derived myoblast line C2C12 cell (Dainippon Pharmaceutical Co., Ltd.) was subcultured in a high glucose Eagle's modified Dulbecco's medium (GIBCO) added with 10% calf fetal bovine serum (GIBCO), 100 unit/mL penicillin and 100 μg/mL streptomycin (hereinafter to be referred to as a growth medium), plated at 5000 cells/cm^2 and cultured at 37° C., under 5% CO2. • (2) When the cells reached subconfluence of not less than 90%, the medium was exchanged with high glucose Eagle's modified Dulbecco's medium (GIBCO) added with (i) 2% horse serum (GIBCO) and (ii) penicillin, streptomycin and a test compound (hereinafter to be referred to as a differentiation medium) and the cells were cultured for 2 days. To the control group was added DMSO solution instead of the test compound. • (3) The cells were washed with PBS, 0.5% NP-40 solution was added, and the cells were lysed by freeze-thawing. The cell extract was centrifuged and the creatine kinase activity in the supernatant was measured as an index of muscle differentiation. The creatine kinase activity was measured using CPKII Test Wako (Wako Pure Chemical Industries, Ltd.) according to the manual of the kit.
The numerical values in Table 1 show creatine kinase activity of the compound addition group when the creatine kinase activity without addition of the compound is 100%, and * means measurement with addition of the compound at 10 μM, ** at 0.01 μM, and others at 1 μM.

C2C12 cells [2] = assay: Sugar uptake promoting activity in muscle cell (2DG uptake); type: cell-based, Mouse; conditions: for 2DG uptake (%): control group (DMSO) = 100%
Method: • (1) In the same manner as in Example 1, C2C12 cells were cultured in a growth medium to not less than 90% confluence. • (2) The medium was exchanged with a differentiation medium, and the cells were cultured until observation of myotube formation under a microscope. • (3) The compounds of Reference Example 1 and Reference Example 7 were added, and the cells were cultured overnight. • (4) The cells were washed with krebs-ringer HEPES phosphate buffer added with 1% bovine serum albumin, cultured for 30 min in this buffer, 2-deoxyglucose (2DG) (0.1 mM, 0.8 μCi/250 μL) was added and the cells were cultured at 37° C. for 75 min. • (5) The cells were washed 4 times with PBS, MicroScint-20 (125 μL/well, PerkinElmer) was added and the radioactivity was measured by a scintillation counter. DMSO (dimethyl sulfoxide) alone was added to the control group. The numerical values of 2DG uptake in Table 10 are relative values to the control group as 100%.
The data in Table 10 show mean±standard deviation at n=6 (n is the number of samples).

C2C12 cell = assay: Sugar metabolism promoting activity in muscle cell (lactic acid production); type: cell-based, Mouse; conditions: Mus musculus, 48 h; compound 1 μM, 2 days, C2C12 myotubes; without drug = 100%; read-out: lactic acid production promoting action (%)
Method: • (1) In the same manner as in Example 1, C2C12 cell was cultured in a growth medium. After reaching subconfluence of not less than 90%, the medium was exchanged with a differentiation medium and the cells were cultured for about 7 days while exchanging the medium every 2 or 3 days until the cells differentiated to form a myotube. • (2) After confirmation of myotube formation under a microscope, the test compound (1 μM) was added to a differentiation medium and cultured for 2 days. The cells were washed with Krebs-Ringer HEPES phosphate buffer (10 mM HEPES, pH 7.4, 131 mM NaCl, 4.7 mM KCl, 2.5 mM CaCl2—2H2O, 1.2 mM MgSO4—7H2O, 1.2 mM KH2PO4), the medium was exchanged with Krebs-Ringer HEPES phosphate buffer added with 5 mM glucose, 0.2% fatty acid-free bovine serum albumin, and cultured at 37° C. for 4 hr. • (3) The lactic acid concentration of the culture supernatant was measured using Detarminer LA kit (Kyowa Medex Co., Ltd.).
The numerical values in Table 2 show the concentration of the compound addition group with the concentration of lactic acid without addition of a drug as 100%.

C2C12 cells [3] = assay: ATP content in muscle cell; type: cell-based, Mouse; conditions: for ATP content: two days, control group 100
Method: (§1) • (1) In the same manner as in Example 1, C2C12 cells were cultured in a growth medium to not less than 90% confluence. • (2) The medium was exchanged with a differentiation medium, and the cells were cultured until observation of myotube formation under a microscope. • (3) The compounds of Reference Example 1 and Reference Example 7 were added, and the cells were cultured for two days. • (4) ATP content was measured using Cell Titer-Glo™ Luminescence cell viable assay (Promega) and succinic acid dehydrogenase activity of mitochondria was measured using Cell Counting Kit-8 (Dojin). The data of Table 17 show mean±standard deviation at n=3-4 (n is the number of samples).

[4] = test system: succinic acid dehydrogenase activity of mitochondria; assay: Succinic acid dehydrogenase activity in muscle cell; type: cell-based, Mouse; conditions: for succinic acid dehydrogenase activity: two days, control group 100
Method: as §1

Structure (SMILES) | activity at 0.01 µM [1] [%] | sugar uptake of C2C12 cell differentiated into muscle cell (in words) (C2C12 cells [2]) | 2DG uptake (%) (C2C12 cells [2]; compound 0.1 nM overnight) | 2DG uptake (%) (C2C12 cells [2]; compound 1 nM overnight) | 2DG uptake (%) (C2C12 cells [2]; compound 10 nM overnight) | 2DG uptake (%) (C2C12 cells [2]; compound 100 nM overnight) | activity at 1 µM (C2C12 cell) [%] | ATP content of muscle cells (in words) (C2C12 cells [3]) | ATP content (C2C12 cells [3]; compound 1 nM) | ATP content (C2C12 cells [3]; compound 10 nM) | ATP content (C2C12 cells [3]; compound 100 nM) | succinic acid dehydrogenase activity (in words) [4] | succinic acid dehydrogenase activity ([4]; compound 1 nM) | succinic acid dehydrogenase activity ([4]; compound 10 nM) | succinic acid dehydrogenase activity ([4]; compound 100 nM) | ATP content (C2C12 cells [3]; compound 0.01 nM) | ATP content (C2C12 cells [3]; compound 0.1 nM) | succinic acid dehydrogenase activity ([4]; compound 0.01 nM) | succinic acid dehydrogenase activity ([4]; compound 0.1 nM)
Cn1ncc2c1-c1c(Oc3cccnc3)sc(C(N)=O)c1CC2 [Ref. Ex. 7, 1-methyl-8-(pyridin-3-yloxy)-4,5-dihydro-1H-thieno[3,4-g]indazole-6-carboxamide] | 183 | promoted | 69 | 100 | 137 | 181 | 254 | did not decrease | 106 ± 2 | 111 ± 3 | 103 ± 4 | increased | 111 ± 3 | 120 ± 4 | 131 ± 7 |  |  |  | 
Cc1ncccc1Oc1sc(C(N)=O)c2c1-c1c(cnn1C)CC2 [Ref. Ex. 1, 1-methyl-8-[(2-methylpyridin-3-yl)oxy]-4,5-dihydro-1H-thieno[3,4-g]indazole-6-carboxamide] | 175 | promoted | 89 | 150 | 166 | 187 | 247 | did not decrease | 112 ± 1 |  |  | increased | 124 ± 3 |  |  | 108 ± 1 | 107 ± 0 | 98 ± 10 | 113 ± 5
